Measured values from US20160235752A1, “COMPOSITIONS, METHODS OF USE, AND METHODS OF TREATMENT” (THE UNIVERSITY OF NEW ORLEANS, priority 2013, published 2016).
In brackets after ≈: the same amount, converted by molar mass.

Assays:
[1] = tested on: Candida glabrata (ATCC no. 48435); test: MIC determination by broth microdilution (NCCLS), visual scoring; assay type: cell-based
Protocol: The antifungal activity of the 2,4,6-pyrimidinetrione analogs shown in Schemes 2-6 were evaluated in vitro using Candida albicans (ATCC no. 10231) and Candida glabrata (ATCC no 48435). All assays were done in accordance with NCCLS reference documents^29. The results of these screenings are summarized in Tables 1-9 as the minimal inhibitory concentrations that inhibited more than 80% fungal growth as compared to the positive controls in 1% DMSO and RPMI media. All MIC screens were done using a visual scoring method as opposed to spectroscopic methods of analysis, due to the physical properties of many of the compounds altering their absorbance spectra relative to the positive, negative and drug controls.
(§1) None of the compounds tested over the course of these studies were soluble in water and DMSO was used to dilute each compound tested. Master stock concentrations of all tested compounds were prepared to ensure that the maximum final concentration of DMSO was 1% or less. Subsequent 2-fold serial dilutions were made using sterile water to a final concentration of 1280-5.00 μg/ml. A final 10-fold dilution of each drug was made by aliquotting 0.1 mL of each drug dilution into 0.9 mL of fungal suspension in RPMI 1640 media with 10 mM HEPES buffer added (see methodology below), giving final concentrations tested in the range of 128-0.5 μg/ml.
(§2) Antifungal susceptibility studies and minimal inhibitory concentrations (MIC) values for Candida albicans (ATCC no. 10231) and Candida glabrata (ATCC no. 48435) were determined by the broth microdilution technique in accordance with NCCLS reference documents. Microdilution panels ranged from 0.5 to 128 μg/mL. All organisms were subcultured on Sabouraud agar and passaged to ensure purity and viability. The initiating inocula were prepared by picking 5-7 isolated colonies ˜1 mm in diameter from freshly prepared YM agar plates. Colonies were resuspended in sterile water, vortexed and the cell density was adjusted spectrophotometrically to the transmittance of a 0.5 McFarland standard at a wavelength of 530 nm, to yield a stock suspension of 1×10^6-5×10^6 cells/mL. The stock was allowed to hydrate for 30 minutes at room temperature. A working suspension was then made by diluting the stock 1:50 with RPMI 1640 media containing HEPES buffer. The working suspension was used for all assays. The plates were incubated at 35° C. for 48-72 hours in a humid atmosphere. Growth was scored visually. MIC values are defined as the lowest concentration of agent that prevents any discernible growth, ˜80% reduction of growth, as compared with drug-free control wells. All assays were run in parallel using either fluconazole or amphotericin B at the NCCLS recommended concentrations^29 as a drug control (Sigma-Aldrich).

[2] = tested on: Candida albicans (ATCC no. 10231); test: as above; assay type: cell-based
Protocol: The antifungal activity of the 2,4,6-pyrimidinetrione analogs shown in Schemes 2-6 were evaluated in vitro using Candida albicans (ATCC no. 10231) and Candida glabrata (ATCC no 48435). All assays were done in accordance with NCCLS reference documents^29.
as §1, with “Master” for “None of the compounds tested over the course of these studies were soluble in water and DMSO was used to dilute each compound tested. Master”
as §2

[3] = Table 5, Schiff Bases of 5-acylpyrimidinetriones
[4] = Table 1, 5-Acyl-2,4,6-pyrimidinetriones, >80% growth inhibition, RPMI, 1% DMSO
[5] = Table 7, Phenylhydrazones of 5-Acylpyrimidinetriones
[6] = Table 3, 5-Alkylated Pyrimidinetriones
[7] = Table 8, N-Acylhydrazones of 5-Acylpyrimidinetriones
[8] = Table 2, 5-Arylidene-2,4,6-pyrimidinetriones

For `CC(=Nc1ccncc1)C1C(=O)NC(=O)NC1=O` [BA88], the “MIC80 C. glabrata” value [1, 3] was “— (none of the 5-acyl-2,4,6-pyrimidinetriones, 5-alkylated pyrimidinetriones or the 5,5-dialkylated pyrimidinetriones showed antifungal activity through 125 μg/mL)” and the “MIC80 C. albicans” value [2, 3] was “— (none of the 5-acyl-2,4,6-pyrimidinetriones, 5-alkylated pyrimidinetriones or the 5,5-dialkylated pyrimidinetriones showed antifungal activity through 125 μg/mL)”.
`CN1C(=O)C(C=Nc2ccccc2)C(=O)N(C)C1=O` [BA90] was tested, and the “MIC80 C. glabrata” value [1, 3] was “— (none of the 5-acyl-2,4,6-pyrimidinetriones, 5-alkylated pyrimidinetriones or the 5,5-dialkylated pyrimidinetriones showed antifungal activity through 125 μg/mL)” and the “MIC80 C. albicans” value [2, 3] was “— (none of the 5-acyl-2,4,6-pyrimidinetriones, 5-alkylated pyrimidinetriones or the 5,5-dialkylated pyrimidinetriones showed antifungal activity through 125 μg/mL)”.
`CN1C(=O)C(C(=O)c2cccc([N+](=O)[O-])c2)C(=O)N(C)C1=O` [BA5] was tested, and the “MIC80 C. glabrata” value [1, 4] was “— (none of the 5-acyl-2,4,6-pyrimidinetriones, 5-alkylated pyrimidinetriones or the 5,5-dialkylated pyrimidinetriones showed antifungal activity through 125 μg/mL)” and the “MIC80 C. albicans” value [2, 4] was “— (none of the 5-acyl-2,4,6-pyrimidinetriones, 5-alkylated pyrimidinetriones or the 5,5-dialkylated pyrimidinetriones showed antifungal activity through 125 μg/mL)”.
In the case of `CN1C(=O)C(C(=NNc2ccc(C(=O)O)cc2)c2ccccc2)C(=O)N(C)C1=O` [BA33], the “MIC80 C. glabrata” value [1, 5] is reported as “— (none of the 5-acyl-2,4,6-pyrimidinetriones, 5-alkylated pyrimidinetriones or the 5,5-dialkylated pyrimidinetriones showed antifungal activity through 125 μg/mL)” and the “MIC80 C. albicans” value [2, 5] is reported as “— (none of the 5-acyl-2,4,6-pyrimidinetriones, 5-alkylated pyrimidinetriones or the 5,5-dialkylated pyrimidinetriones showed antifungal activity through 125 μg/mL)”.
`CN1C(=O)C(C(=O)c2cc([N+](=O)[O-])cc([N+](=O)[O-])c2)C(=O)N(C)C1=O` [BA9] was tested, and the “MIC80 C. glabrata” value [1, 4] was “— (none of the 5-acyl-2,4,6-pyrimidinetriones, 5-alkylated pyrimidinetriones or the 5,5-dialkylated pyrimidinetriones showed antifungal activity through 125 μg/mL)” and the “MIC80 C. albicans” value [2, 4] was “— (none of the 5-acyl-2,4,6-pyrimidinetriones, 5-alkylated pyrimidinetriones or the 5,5-dialkylated pyrimidinetriones showed antifungal activity through 125 μg/mL)”.
In the case of `CCCCN1C(=O)NC(=O)C(C(=O)c2ccc(OC)cc2)C1=O` (stereo not shown) [BA16], the “MIC80 C. glabrata” value [1, 4] is reported as “— (none of the 5-acyl-2,4,6-pyrimidinetriones, 5-alkylated pyrimidinetriones or the 5,5-dialkylated pyrimidinetriones showed antifungal activity through 125 μg/mL)” and the “MIC80 C. albicans” value [2, 4] is reported as “— (none of the 5-acyl-2,4,6-pyrimidinetriones, 5-alkylated pyrimidinetriones or the 5,5-dialkylated pyrimidinetriones showed antifungal activity through 125 μg/mL)”.
In the case of `O=C1NC(=O)C(CC2CCC(O)CC2)C(=O)N1` (stereo not shown) [BA64], the “MIC80 C. glabrata” value [1, 6] is reported as “— (none of the 5-acyl-2,4,6-pyrimidinetriones, 5-alkylated pyrimidinetriones or the 5,5-dialkylated pyrimidinetriones showed antifungal activity through 125 μg/mL)” and the “MIC80 C. albicans” value [2, 6] is reported as “— (none of the 5-acyl-2,4,6-pyrimidinetriones, 5-alkylated pyrimidinetriones or the 5,5-dialkylated pyrimidinetriones showed antifungal activity through 125 μg/mL)”.
In the case of `COC(=O)NN=C(c1ccc(O)cc1)C1C(=O)N(C)C(=O)N(C)C1=O` [BA36], the “MIC80 C. glabrata” value [1, 7] is reported as “— (none of the 5-acyl-2,4,6-pyrimidinetriones, 5-alkylated pyrimidinetriones or the 5,5-dialkylated pyrimidinetriones showed antifungal activity through 125 μg/mL)” and the “MIC80 C. albicans” value [2, 7] is reported as “— (none of the 5-acyl-2,4,6-pyrimidinetriones, 5-alkylated pyrimidinetriones or the 5,5-dialkylated pyrimidinetriones showed antifungal activity through 125 μg/mL)”.
With `O=C1NC(=O)C(C2CCCCC2)C(=O)N1` [BA62] the “MIC80 C. glabrata” value [1, 6] was “— (none of the 5-acyl-2,4,6-pyrimidinetriones, 5-alkylated pyrimidinetriones or the 5,5-dialkylated pyrimidinetriones showed antifungal activity through 125 μg/mL)” and the “MIC80 C. albicans” value [2, 6] was “— (none of the 5-acyl-2,4,6-pyrimidinetriones, 5-alkylated pyrimidinetriones or the 5,5-dialkylated pyrimidinetriones showed antifungal activity through 125 μg/mL)”.
For `COC(=O)NN=C(c1ccc([N+](=O)[O-])cc1)C1C(=O)NC(=O)NC1=O` [BA37], the “MIC80 C. glabrata” value [1, 7] was “— (none of the 5-acyl-2,4,6-pyrimidinetriones, 5-alkylated pyrimidinetriones or the 5,5-dialkylated pyrimidinetriones showed antifungal activity through 125 μg/mL)” and the “MIC80 C. albicans” value [2, 7] was “— (none of the 5-acyl-2,4,6-pyrimidinetriones, 5-alkylated pyrimidinetriones or the 5,5-dialkylated pyrimidinetriones showed antifungal activity through 125 μg/mL)”.
In the case of `CCCCN1C(=O)NC(=O)C(C(=O)c2ccc(O)cc2)C1=O` (stereo not shown) [BA12], the “MIC80 C. glabrata” value [1, 4] is reported as “— (none of the 5-acyl-2,4,6-pyrimidinetriones, 5-alkylated pyrimidinetriones or the 5,5-dialkylated pyrimidinetriones showed antifungal activity through 125 μg/mL)” and the “MIC80 C. albicans” value [2, 4] is reported as “— (none of the 5-acyl-2,4,6-pyrimidinetriones, 5-alkylated pyrimidinetriones or the 5,5-dialkylated pyrimidinetriones showed antifungal activity through 125 μg/mL)”.
With `O=C1NC(=O)C(C(=O)c2ccc(O)cc2)C(=O)N1` [BA10] the “MIC80 C. glabrata” value [1, 4] was “— (none of the 5-acyl-2,4,6-pyrimidinetriones, 5-alkylated pyrimidinetriones or the 5,5-dialkylated pyrimidinetriones showed antifungal activity through 125 μg/mL)” and the “MIC80 C. albicans” value [2, 4] was “— (none of the 5-acyl-2,4,6-pyrimidinetriones, 5-alkylated pyrimidinetriones or the 5,5-dialkylated pyrimidinetriones showed antifungal activity through 125 μg/mL)”.
For `COC(=O)NN=C(C)C1C(=O)N(C)C(=O)N(C)C1=O` [BA75], the “MIC80 C. glabrata” value [1, 7] was “— (none of the 5-acyl-2,4,6-pyrimidinetriones, 5-alkylated pyrimidinetriones or the 5,5-dialkylated pyrimidinetriones showed antifungal activity through 125 μg/mL)” and the “MIC80 C. albicans” value [2, 7] was “— (none of the 5-acyl-2,4,6-pyrimidinetriones, 5-alkylated pyrimidinetriones or the 5,5-dialkylated pyrimidinetriones showed antifungal activity through 125 μg/mL)”.
With `CN1C(=O)C(/C=N/Nc2ccccc2)C(=O)N(C)C1=O` [BA73, 1,3-dimethyl-5-[(E)-(2-phenylhydrazinylidene)methyl]pyrimidine-2,4,6-trione] the MIC80 ([1]; Nakaseomyces glabratus, ATCC48435, read-out: MIC80 C. glabrata) was 2 µg/mL (≈ 7.29 µM) and the MIC80 ([2]; Candida albicans, ATCC10231, read-out: MIC80 C. albicans) was 4 µg/mL (≈ 14.6 µM).
`CN1C(=O)C(C(=NNc2ccc([N+](=O)[O-])cc2[N+](=O)[O-])c2ccc(O)cc2)C(=O)N(C)C1=O` [BA34] was tested, and the “MIC80 C. glabrata” value [1, 5] was “— (none of the 5-acyl-2,4,6-pyrimidinetriones, 5-alkylated pyrimidinetriones or the 5,5-dialkylated pyrimidinetriones showed antifungal activity through 125 μg/mL)” and the “MIC80 C. albicans” value [2, 5] was “— (none of the 5-acyl-2,4,6-pyrimidinetriones, 5-alkylated pyrimidinetriones or the 5,5-dialkylated pyrimidinetriones showed antifungal activity through 125 μg/mL)”.
In the case of `CN1C(=O)C(=CC=Cc2ccccc2)C(=O)N(C)C1=O` [BA43], the “MIC80 C. glabrata” value [1, 8] is reported as 125 µg/mL (≈ 462 µM) and the “MIC80 C. albicans” value [2, 8] is reported as 62 µg/mL (≈ 229 µM).
In the case of `CN1C(=O)C(C=Nc2ccc(O)cc2)C(=O)N(C)C1=O` [BA79], the “MIC80 C. glabrata” value [1, 3] is reported as “— (none of the 5-acyl-2,4,6-pyrimidinetriones, 5-alkylated pyrimidinetriones or the 5,5-dialkylated pyrimidinetriones showed antifungal activity through 125 μg/mL)” and the “MIC80 C. albicans” value [2, 3] is reported as “— (none of the 5-acyl-2,4,6-pyrimidinetriones, 5-alkylated pyrimidinetriones or the 5,5-dialkylated pyrimidinetriones showed antifungal activity through 125 μg/mL)”.
With `CC(=Nc1ccccc1)C1C(=O)N(C)C(=O)N(C)C1=O` [BA91] the “MIC80 C. glabrata” value [1, 3] was “— (none of the 5-acyl-2,4,6-pyrimidinetriones, 5-alkylated pyrimidinetriones or the 5,5-dialkylated pyrimidinetriones showed antifungal activity through 125 μg/mL)” and the “MIC80 C. albicans” value [2, 3] was “— (none of the 5-acyl-2,4,6-pyrimidinetriones, 5-alkylated pyrimidinetriones or the 5,5-dialkylated pyrimidinetriones showed antifungal activity through 125 μg/mL)”.
`CC(=NNC(=O)c1ccc([N+](=O)[O-])cc1)C1C(=O)NC(=O)NC1=O` [BA130] was tested, and the “MIC80 C. albicans” value [2, 7] was “— (none of the 5-acyl-2,4,6-pyrimidinetriones, 5-alkylated pyrimidinetriones or the 5,5-dialkylated pyrimidinetriones showed antifungal activity through 125 μg/mL)”.
